In US6087371A, “Heterocyclyl-ergoline derivatives as 5-HT1A receptor ligands” (Pharmacia & Upjohn S.p.A., priority 1996, dated 2000):
Like-named read-outs stand apart in the source and are kept apart here.

Columns and labels:
5-HT1A receptor = target: T1, 5-HT1A receptor (Rattus norvegicus, UniProt P19327); assay: Affinity for serotonin 1A (5-HT1A) receptor, 3H-8-OH-DPAT binding test
T1 construct: Freezed hippocampus dissected out from rats were homogenized; from tissue; host or cells: rat hippocampus, crude synaptosomal membranes
T1 sequence (P19327 1-422): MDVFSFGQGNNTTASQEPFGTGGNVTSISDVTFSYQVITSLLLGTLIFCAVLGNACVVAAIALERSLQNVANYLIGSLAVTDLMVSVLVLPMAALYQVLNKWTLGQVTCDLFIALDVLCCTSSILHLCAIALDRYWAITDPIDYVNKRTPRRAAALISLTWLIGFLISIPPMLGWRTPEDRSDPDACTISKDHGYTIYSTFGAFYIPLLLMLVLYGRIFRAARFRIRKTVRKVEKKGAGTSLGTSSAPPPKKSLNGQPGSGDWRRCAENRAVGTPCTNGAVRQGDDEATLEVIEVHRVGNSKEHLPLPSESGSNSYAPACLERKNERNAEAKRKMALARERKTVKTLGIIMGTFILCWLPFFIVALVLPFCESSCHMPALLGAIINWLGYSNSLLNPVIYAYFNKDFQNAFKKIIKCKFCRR
Protocol: Affinity for serotonin 1A (5-HT1A) receptor [^3 H-8-Hydroxy-2-dipropylaminotetralin (^3 H-8-OH-DPAT)binding test]
Preparation of crude synaptosome fraction and binding assay were conducted in accordance with the method reported in Journal of Neurochemistry, vol 44, page 1685, 1985 by Hall et al. Freezed hippocampus dissected out from rats were homogenized in 40 volumes of ice cold 50 mM Tris-HCl buffer (pH. 7.4) and the suspension was centrifuged at 500× g for 10 minutes at 0° C.
The supernatant was centrifuged at 40,000× g for 20 minutes at 0° C. and the resulting pellet was homogenized in 40 volumes of the above buffer and incubated at 37° C. for 10 minutes. After completion of reaction, the suspension was centrifuged at 40,000× g for 20 minutes at 0° C. The resulting pellet was washed twice by resuspension in 40 volumes of the above buffer and centrifugation, and finally suspended in 60 volumes of ice-cold 50 mM Tris-HCI buffer (pH 7.4) containing 1 mM manganese chloride for use in the next assay.
To the aliquots ([…]) of synaptosome membranes solution were added 50 ml of tritiated 8-OH-DPAT solution at the terminal concentration of 0.2 nM and 50 ml of test compound solution or 50 ml of its medium, and incubated at 37° C. for 10 minutes. Then to the mixture was added 5 ml of ice-cold 50 mM Tris-HCI buffer (pH 7.4) rapidly vacuum-filtered through Whatman^R GF/B filters and washed twice with 5 ml of the same buffer. The radioactivity of the residue remaining on the filters was measured by liquid scintillation counter. Nonspecific binding was determined under the presence of 10^-5 M serotonin (5-HT). 50% Inhibition concentration (IC50) of the test compound was graphically determined.

5-HT2 receptor = target: T2, 5-HT2 receptor (Rattus norvegicus, UniProt P14842); assay: Affinity for serotonin 2 (5-HT2) receptor, 3H-Ketanserin binding test
T2 construct: Freezed cerebral cortex dissected out from rats were homogenized; from tissue; host or cells: rat cerebral cortex, crude synaptosomal membranes
T2 sequence (P14842 whole entry): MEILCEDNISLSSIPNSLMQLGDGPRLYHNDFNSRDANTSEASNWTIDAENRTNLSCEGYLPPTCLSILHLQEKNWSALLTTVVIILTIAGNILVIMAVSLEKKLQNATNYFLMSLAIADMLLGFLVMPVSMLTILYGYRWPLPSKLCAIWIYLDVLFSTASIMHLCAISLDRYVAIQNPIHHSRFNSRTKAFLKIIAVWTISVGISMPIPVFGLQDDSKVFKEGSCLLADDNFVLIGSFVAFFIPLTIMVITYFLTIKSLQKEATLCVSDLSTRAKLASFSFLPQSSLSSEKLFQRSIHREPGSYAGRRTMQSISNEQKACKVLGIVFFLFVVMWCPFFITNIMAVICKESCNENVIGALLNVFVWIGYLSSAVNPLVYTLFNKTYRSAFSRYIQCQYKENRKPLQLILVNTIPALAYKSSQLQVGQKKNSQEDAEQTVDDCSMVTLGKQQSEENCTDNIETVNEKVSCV
Protocol: Affinity for serotonin 2(5-HT2)receptor (^3 H-Ketanserin binding test).
The supernatant was centrifuged at 40,000× g for 20 minutes at 0° C. and the resulting pellets was homogenized in 30 volumes of ice-cold 50 mM Tris-HCI buffer (pH.7.7) and incubated at 37° C. for 10 minutes. The suspension was centrifuged at 40,000× g for 20 minutes at 0° C. again. The resulting pellet was homogenized in 100 volumes of the above buffer and provided as synaptosome membranes solution for the next assay.
To the aliquots (900 m) of synaptosome membranes solution were added 50 ml solution of ^3 H-Ketanserin solution at the terminal concentration of […] and 50 ml of test compound or its medium, and incubated at 37° C. for 20 minutes. After completion of the reaction, the mixture was rapidly vacuum-filtered through Whatman^R GF/B filters. The filters were washed three times with 5 ml of the above buffer, and then the radioactivity of the residue remaining on the filters was measured by liquid scintillation counter. Non specific binding was determined under the presence of […] of mianserin.

D2 receptor = target: T3, D2 receptor (Rattus norvegicus, UniProt P61169); assay: Affinity for dopamine 2 (D2) receptor, 3H-Spiperone binding test; conditions: rat corpus striatum, 3H-Spiperone 0.2 nM, 37° C. 20 minutes; read-out: D2 affinity expressed as IC50
T3 construct: Freezed corpus striatum dissected out from rats were homogenized; from tissue; host or cells: rat corpus striatum, crude synaptosomal membranes
T3 sequence (P61169 whole entry): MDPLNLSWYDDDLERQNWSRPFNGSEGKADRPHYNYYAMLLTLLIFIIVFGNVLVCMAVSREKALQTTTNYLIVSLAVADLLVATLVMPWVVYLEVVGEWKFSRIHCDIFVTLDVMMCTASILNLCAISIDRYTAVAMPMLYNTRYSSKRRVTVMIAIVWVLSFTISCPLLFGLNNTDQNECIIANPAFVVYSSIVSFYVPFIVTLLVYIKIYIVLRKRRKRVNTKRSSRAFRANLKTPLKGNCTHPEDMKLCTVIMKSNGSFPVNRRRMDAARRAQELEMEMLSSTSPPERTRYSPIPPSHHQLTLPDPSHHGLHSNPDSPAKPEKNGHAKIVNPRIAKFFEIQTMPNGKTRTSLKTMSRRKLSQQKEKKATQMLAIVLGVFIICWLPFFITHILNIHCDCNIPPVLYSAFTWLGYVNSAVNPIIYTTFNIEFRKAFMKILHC
Protocol: Affinity for dopamine 2 (D2)receptor (^3 H-Spiperone binding test.)
Preparation of crude synaptosome fraction and binding assays were conducted in accordance with the method reported in European Journal of Pharmacology, vol 46, page 377,1977 by I.Creese et al. Freezed corpus striatum dissected out from rats were homogenized in 100 volumes of ice cold 50 mM Tris-HCl buffer (pH.7.7) and the suspension was centrifuged at 500× g for 10 minutes at 0° C.
The supernatant was centrifuged at 50,000× g for 15 minutes at 0° C. and the resulting pellet was homogenized in 100 volumes of the above buffer and then the suspension was centrifuged at 50,000× g for 15 minutes at 0° C. again. The resulting pellet was homogenized in 150 volumes of 50 mM Tris-HCl buffer (PH 7.1) containing 120 mM potassium chloride, 2 mM calcium chloride, 1 mM magnesium chloride, 0,1 ascorbic acid and […] pargyline. The suspension was incubated at 37° C. for 10 minutes and then provided as synaptosome membranes solution for the next assays. To the aliquots (900 m) of synaptosome membranes solution were added 50 ml of H-Spiperone solution at the terminal concentration of 0.2 nM and 50 ml of test compound solution or 50 ml of its medium, and incubated at 37° C. for 20 minutes. After completion of the reaction, the mixture was rapidly vacuum-filtered through Whatman^R GF/B filters. The filters were washed three times with 5 ml of the above buffer, and then the radioactivity of the residue remaining on the filters was measured by liquid scintillation counter. Nonspecific binding was determined under presence of […] of L)-Sulpiride 50% Inhibition concentration (IC50) of the test compound was graphically determined.

PKC = PKC translocation in hippocampal synaptosomes (Western blot); type: cell-based; conditions: 15 min at 30° C., control = 100, dose not given
Protocol: PKC translocation in different brain's area
Purified synaptosomes have been obtained following the procedure described by Dunkley (Dunkley P. R., Health J. W:, Harrison S. M., Jarvie P. E., Glenfield P. J. and Rostas J. A. P.
A rapid percolation gradient procedure for isolation of synaptosomes directly from Si fraction: homogeneity and morphology of subcellular fractions. Brain res 441:59-71, 1988).
Synaptosomes purified from cortex, hippocampus were incubated (10 mg/ml) for 15 min at 30° C. in presence of increasing doses of the compounds of the present invention dissolved in tartaric acid (pH 7.0) or of the vehicle alone.
After incubation, purified synaptosomes were collected in cold Krebs buffer containing 10 mM EGTA and then processed according to Shearmann et al (Shearman M. S., Shinomura T., Oda T. and Nishizuka Y. Protein kinase C subspecies in adult rat hippocampal synaptosomes. Activation by diacylglycerol and arachidonic acid. FEBS Lett 279:261-264, 1991).
Synaptosomes have been lysed in this solution for 30 min at 4° C. with stirring. […]
PKC on Western blots was detected with a polyclonal total PKC antibody (Upstate Biotechnology). […] Antigen antibody complexes were detected by enhanced chemiluminescence. Results have been analysed by computer assisted Image analysis and expressed as per cent of PKC translocation in control conditions.

D1 receptor = assay: Affinity for D1 receptor (method not described); type: binding; conditions: read-out: D1 affinity expressed as IC50
[1] = rat hippocampus, 3H-8-OH-DPAT 0.2 nM, 37° C. 10 minutes, read-out: 5-HT1A affinity expressed as IC50

For CO[C@]12C[C@@H](Cc3noc(-c4cncc(Br)c4)n3)CN(C)[C@@H]1Cc1cn(C)c3cccc2c13 [Example 2, 1,6-Dimethyl-8β-methyl-[5-(5-bromo-pyridin-3-yl)-1,2,4-oxadiazol-3-yl]-10α-methoxy-ergoline], which IC50 (5-HT1A receptor; [1]) is on record?
The IC50 was 200 nM.

And the IC50 (5-HT2 receptor)?
The IC50 was 2400 nM.

And the IC50 (D2 receptor)?
The IC50 was 3640 nM.

How did the IC50 (5-HT1A receptor; [1]) turn out when CO[C@]12C[C@@H](Cc3nc(-c4cncc(Br)c4)no3)CN(C)[C@@H]1Cc1cn(C)c3cccc2c13 [Example 4, 1,6-Dimethyl-8β-methyl-[3-(5-bromo-pyridin-3-yl)-1,2,4-oxadiazol-5-yl]-10α-methoxy-ergoline] was run?
The IC50 was 300 nM.

And the IC50 (5-HT2 receptor)?
Its IC50 is 3400 nM.

And the IC50 (D2 receptor)?
The IC50 was 2930 nM.

And the “PKC translocation in hippocampal synaptosomes, expressed as per cent of PKC translocation in control conditions” value (PKC)?
Its value is 126 per cent.

Which IC50 (5-HT1A receptor) does the source give for CO[C@]12C[C@@H](c3nnc(-c4cncc(Br)c4)o3)CN(C)[C@@H]1Cc1cn(C)c3cccc2c13 [Example 8, 1,6-Dimethyl-8β-[2-(5-bromo-pyridin-3-yl)-1,3,4-oxadiazol-5-yl]-10α-methoxy-ergoline] here?
The IC50 was 9 nM.

And the IC50 (5-HT2 receptor)?
Its IC50 is 27 nM.

And the IC50 (D2 receptor)?
Its IC50 is 1950 nM.

And the IC50 (D1 receptor)?
Its IC50 is 2040 nM.

What does the source list for CO[C@]12C[C@@H](Cc3nnc(-c4cncc(Br)c4)o3)CN(C)[C@@H]1Cc1cn(C)c3cccc2c13 [Example 10, 1,6-Dimethyl-8β-methyl-[2-(5-bromo-pyridin-3-yl)-1,3,4-oxadiazol-5-yl]-10α-methoxy-ergoline]?
IC50 (5-HT1A receptor): 11 nM; IC50 (5-HT2 receptor): 890 nM; IC50 (D2 receptor): 2510 nM
